Measurements: PMC10361207, “Cannabinoid and Opioid Receptor Affinity and Modulation of Cancer-Related Signaling Pathways of Machaeriols and Machaeridiols from Machaerium Pers” (Molecules, 2023)
≈ marks a conversion by molar mass, not a printed value. Read-outs that look alike come from different tables or passages of the source.

Legend:
CB1 receptor = biological target: T1, CB1 receptor (Homo sapiens, UniProt P21554); test: Competitive radioligand binding assay, CB1; conditions: 10 μM; [3H]-CP55,940
T1 construct: expressed in transfected cells; host or cells: HEK293 (ATCC), stably transfected; membranes
T1 sequence (P21554 whole entry): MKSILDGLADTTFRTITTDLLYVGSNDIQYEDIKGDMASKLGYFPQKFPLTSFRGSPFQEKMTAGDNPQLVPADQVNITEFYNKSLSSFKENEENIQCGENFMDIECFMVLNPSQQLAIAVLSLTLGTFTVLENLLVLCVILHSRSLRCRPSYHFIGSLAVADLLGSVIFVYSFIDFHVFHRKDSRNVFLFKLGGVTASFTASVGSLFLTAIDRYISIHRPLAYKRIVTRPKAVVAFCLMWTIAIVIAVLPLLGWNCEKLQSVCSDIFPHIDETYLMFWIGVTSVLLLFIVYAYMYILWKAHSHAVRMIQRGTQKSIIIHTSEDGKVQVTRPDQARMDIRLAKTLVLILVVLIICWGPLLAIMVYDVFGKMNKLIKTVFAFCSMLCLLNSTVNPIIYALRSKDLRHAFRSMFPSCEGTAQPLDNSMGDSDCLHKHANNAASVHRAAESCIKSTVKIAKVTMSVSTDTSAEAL
Experimental: (§1) HEK293 cells stably transfected with δ, κ and μ opioid subtypes were a generous gift from Roth Laboratories (University of North Carolina at Chapel Hill, N.C., USA). CB and opioid cells were maintained as previously described.
(§2) Membranes were purified by first washing the cells with cold PBS and scraping the cells into cold 50 mM Tris-HCl, pH 7.4 buffer, which was centrifuged at 5200× g for 10 min at 4 °C; next, the supernatant was discarded, and the pellet was washed with more Tris-HCl buffer, homogenized via a Sonic Dismembrator (Fisher Scientific, Pittsburgh, PA, USA) and then centrifuged at 24,000× g for 40 min at 4 °C. Finally, the pellet was re-suspended in cold 50 mM Tris-HCl buffer, aliquoted into 2 mL vials and stored at −80 °C. The total membrane protein concentration was measured using a Pierce BCA Protein Assay Kit (Thermo Scientific, Rockford, IL, USA) as per the manufacturer’s protocol.
(§3) Cannabinoid and opioid competitive radioligand binding assays were performed as previously described. Saturation experiments were performed for all the receptors to determine the receptor concentration and radioligand dissociation constant (Kd) for the membrane. Percent displacements were evaluated for all the cannabinoid and opioid subtypes with a triplicate of a fixed concentration (10 µg/mL for extracts and fractions and 10 μM for purified compounds). […] Control/test compounds were dissolved in DMSO at 10 μg/mL for extracts and fractions and 10 μM for purified compounds. […] The percent displacement was calculated to represent the ability of the samples to displace the radioligand binding for a given cannabinoid or opioid receptor subtype.
(§4) The percent displacement was calculated as follows: 100−binding of compound−nonspecific binding/specific binding×100
(§5) The competitive binding assays were performed using 12 serial dilutions of each compound ranging from 0.002 to 300 μM (control compounds were serially diluted from 10 μM to 0.06 nM). The cannabinoid assays were incubated for 90 min at 37 °C with gentle agitation. The opioid assays were incubated for 60 min at room temperature. Bound radioligands were collected on GF/C (cannabinoid) or GF/B plates (opioid) and washed 10 times with ice-cold 50 mM Tris-HCl (pH 7.4)/0.1% BSA (cannabinoid) or ice-cold 50 mM Tris-HCl (pH 7.4) (opioid). Radiodetection was measured with 50 µL (cannabinoid) or 25 µL (opioid) of MicroScint^TM-20 on a TopCount NXT HTS Microplate Scintillation Counter (PerkinElmer, Waltham, MA, USA). The IC50 and Ki values were calculated via a non-linear curve fit model using GraphPad Prism 5.0 software (GraphPad Software, Inc., San Diego, CA, USA). Each compound was tested in triplicate unless stated otherwise.

δ opioid receptor = biological target: T2, δ opioid receptor (Homo sapiens, UniProt P41143); test: Competitive radioligand binding assay, δ opioid; conditions: for inhibition at 10 µM: [3H]-enkephalin (DPDPE), read-out: Percent displacement, Δ
T2 construct: host or cells: HEK293, stably transfected; membranes
T2 sequence (P41143 whole entry): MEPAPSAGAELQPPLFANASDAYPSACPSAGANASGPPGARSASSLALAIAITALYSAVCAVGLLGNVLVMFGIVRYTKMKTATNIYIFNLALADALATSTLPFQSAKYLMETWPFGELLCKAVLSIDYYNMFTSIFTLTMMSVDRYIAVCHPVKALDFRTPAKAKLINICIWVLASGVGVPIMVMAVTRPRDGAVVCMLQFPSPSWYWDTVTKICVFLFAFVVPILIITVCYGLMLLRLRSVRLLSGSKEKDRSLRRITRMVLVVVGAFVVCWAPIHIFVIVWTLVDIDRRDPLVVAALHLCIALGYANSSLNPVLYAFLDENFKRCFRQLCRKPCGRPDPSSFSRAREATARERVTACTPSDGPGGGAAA
Experimental: as §1, §2, §3, §4, §5

[1] = Cytotoxicity, Neutral Red, KB; assay type: cell-based; conditions: human, KB epidermal carcinoma (oral) cells, Na = not active up to 50 µg/mL
Experimental: In vitro cytotoxic activity was determined against five human cancer cell lines—malignant melanoma (SK-MEL), epidermal carcinoma oral (KB), ductal carcinoma breast (BT-549), ovary carcinoma (SKOV-3) and cervical (HeLa) cancer cells—and two non-cancerous kidney cell lines (LLC-PK1 and Vero). All cell lines were obtained from the American Type Culture Collection (ATCC, Rockville, MD, USA). Each assay was performed in 96-well tissue culture-treated microplates. The cells were seeded at a density of 25,000 cells/well and incubated for 24 h. Samples at different concentrations were added, and the cells were incubated again for 48 h. At the end of the incubation, the cell viability was determined using Neutral Red dye according to a modification of the procedure used by Borenfreund et al.. IC50 values were determined from dose–response curves of the percent growth inhibition against test concentrations. Doxorubicin was used as a positive control, while DMSO was used as the negative (vehicle) control.

Smad2/3 = test: Luciferase reporter assay, Smad2/3, HeLa; assay type: cell-based, human
Experimental: (§6) Hela cells (or T98G cells) from ATCC were plated in white opaque 384-well plates at a density of 4300 cells/well in 30 µL of growth medium (DMEM with 10% FBS and 1% Pen/Strep). The next day, the medium was aspirated and replaced with DMEM containing 1% FBS. The cells were transfected with respective plasmids using X-tremeGENE HP DNA transfection reagent (Roche). After 24 h of transfection, the test agents were added to the transfected cells, followed 30 min later by an inducing agent: interleukin 6 (IL-6) for Stat3, TGF-β for Smad, m-wnt3a for Wnt and PMA for AP-1, NF-κB, E2F, Myc, ETS, Notch and Hedgehog. No inducer was added for FoXO and pTK. After 4 h or 6 h of induction, the cells were lysed via the addition of the One-Glo luciferase assay system (Promega; Madison, WI). The light output was detected in a GloMax®-Multi+ Detection System with Instinct® Software (Promega E 8051). This luciferase assay determines if the test agent is able to inhibit the activation of cancer-related signaling pathways. In the case of FoxO, the enhanced luciferase activity via the test agent was assessed.

AP-1 = test: Luciferase reporter assay, AP-1, HeLa; assay type: cell-based, human; conditions: Homo sapiens; for IC50: read-out: IC50, Ap-1 (PMA)
Experimental: as §6

Myc = test: Luciferase reporter assay, Myc, HeLa; assay type: cell-based; conditions: Homo sapiens; for IC50: HeLa cells, inducer PMA, dash: not inhibited by more than 40% at 50 µmol/L
Experimental: as §6

ETS = test: Luciferase reporter assay, ETS, HeLa; assay type: cell-based, human
Experimental: as §6

FoxO = test: Luciferase reporter assay, FoxO, HeLa; assay type: cell-based; conditions: Homo sapiens, no inducer; for IC50: HeLa cells, dash: no activity detected, read-out: IC50, FoxO (None)
Experimental: as §6

Hedgehog = test: Luciferase reporter assay, Hedgehog, HeLa; assay type: cell-based, human
Experimental: as §6

[2] = Solubility in aqueous assay buffer; conditions: aqueous buffer of the radioligand binding assay
[3] = Homo sapiens, HeLa cells, inducer TGF-beta, dash: not inhibited by more than 40% at 50 µmol/L
[4] = AP1, read-out: Additive effect (in % inhibition): percentage of luciferase induction, AP-1 (PMA)
[5] = Homo sapiens, HeLa cells, inducer PMA, dash: not inhibited by more than 40% at 50 µmol/L
[6] = HeLa cells, inducer PMA, dash: not inhibited by more than 40% at 50 µmol/L

## C[C@H]1CC[C@H]2[C@H](C1)c1c(O)cc(/C=C/c3ccccc3O)cc1OC2(C)C [compound 3, machaeriol C]
CB1 receptor
  Percent displacement, CB1: 43.6%
δ opioid receptor
  inhibition at 10 µM: 4.6%
δ opioid receptor; Δ Ki ± SEM, NA = not active
  Ki: 17.1 ± 2.61 µM
[1]
  IC50 at 48 h: > 50 µg/mL
Smad2/3; HeLa cells, inducer TGF-beta, dash: not inhibited by more than 40% at 50 µmol/L
  IC50, Smad2/3 (TGF-beta): lacked activity
Smad2/3; Homo sapiens, HeLa, 3 alone at 10 µM, compared to pTK as control, read-out: Additive effect (in % inhibition): percentage of luciferase induction, Smad2/3 (TGF-β)
  inhibition at 10 µM: 93%
Smad2/3; [3]
  IC50: 37 µM
AP-1; [4]
  inhibition at 10 µM: 61%
AP-1
  IC50: 12 µM
Myc; HeLa, 3 alone at 10 µM, compared to pTK as control, read-out: Additive effect (in % inhibition): percentage of luciferase induction, Myc (PMA)
  inhibition at 10 µM: 52%
Myc
  IC50: 10 µM
ETS; Homo sapiens, HeLa, 3 alone at 10 µM, compared to pTK as control, read-out: Additive effect (in % inhibition): percentage of luciferase induction, ETS (PMA)
  inhibition at 10 µM: 66%
ETS; [5]
  IC50: 15 µM
FoxO; HeLa, 3 alone at 10 µM, read-out: Additive effect (in % inhibition): percentage of luciferase induction, FoxO (None)
  inhibition at 10 µM: 120%
FoxO
  IC50: > 50 µM
Hedgehog; Homo sapiens, HeLa, 3 alone at 10 µM, compared to pTK as control, read-out: Additive effect (in % inhibition): percentage of luciferase induction, Hedgehog (PMA)
  inhibition at 10 µM: 66%
Hedgehog; [5]
  IC50: 10 µM
[2]
  solubility: < 33.3 µM

## C=C(C)[C@H]1CC[C@H](C)C[C@@H]1c1c(O)cc(/C=C/c2ccccc2O)cc1O [compound 6, machaeridiol B]
CB1 receptor
  Percent displacement, CB1: 45.2%
δ opioid receptor
  inhibition at 10 µM: 50.2%
δ opioid receptor; NA = not active, read-out: Δ Ki ± SEM
  Ki: 6.54 ± 0.77 µM
δ opioid receptor; read-out: Δ pKi (converted)
  Ki: 6.46 µM
[1]
  IC50 at 48 h: 38 µg/mL (≈ 104 µM)
Smad2/3; Homo sapiens, HeLa, 6 alone at 2 µM, compared to pTK as control, read-out: Additive effect (in % inhibition): percentage of luciferase induction, Smad2/3 (TGF-β)
  inhibition at 2 µM: 109%
Smad2/3; [3]
  IC50: 1.2 µM
AP-1; [4]
  inhibition at 2 µM: 70%
AP-1
  IC50: 5.9 µM
Myc; HeLa, 6 alone at 2 µM, compared to pTK as control, read-out: Additive effect (in % inhibition): percentage of luciferase induction, Myc (PMA)
  inhibition at 2 µM: 111%
Myc
  IC50: 5.3 µM
ETS; [6]
  IC50, ETS (PMA): inactive
ETS; Homo sapiens, HeLa, 6 alone at 2 µM, compared to pTK as control, read-out: Additive effect (in % inhibition): percentage of luciferase induction, ETS (PMA)
  inhibition at 2 µM: 107%
ETS; [5]
  IC50: > 50 µM
FoxO; HeLa, 6 alone at 2 µM, read-out: Additive effect (in % inhibition): percentage of luciferase induction, FoxO (None)
  inhibition at 2 µM: 105%
FoxO
  IC50: > 50 µM
Hedgehog; [6]
  IC50, Hedgehog (PMA): inactive
Hedgehog; Homo sapiens, HeLa, 6 alone at 2 µM, compared to pTK as control, read-out: Additive effect (in % inhibition): percentage of luciferase induction, Hedgehog (PMA)
  inhibition at 2 µM: 92%
Hedgehog; [5]
  IC50: > 50 µM
[2]
  solubility: < 33.3 µM
